Test results from patent publication US20260125425A1, “Carrier Peptide Fragment and Use Thereof” (TOAGOSEI CO., LTD., priority 2022, published 2026).
Primed or numbered codes have the meaning given here. FAM″ = C-terminal FAM dye

Test system: HeLa cells
Experiment: cell membrane permeability in HeLa cells by flow cytometer
Type: cell-based, human
Settings: 20-hour incubation; for MFI (median fluorescence intensity): 10 µM in culture solution, 0.5% DMSO, 37° C., FL2 detector
Experimental: As the eukaryotic cells, HeLa cells (established cell strain derived from a human cervical cancer cell) were used and the cell membrane permeability of the sample 1 was evaluated. In Example 1, the prepared sample solution I was used, and in Example 12, the FAM solution was used.
The HeLa cell was cultured in 10% fetal bovine serum (FBS)-containing Dulbecco's modified Eagle's medium (DMEM (Cat No. 044-29765, manufactured by FUJIFILM Wako Pure Chemical Corporation)), which is a culture medium.
The HeLa cell that adhered to a culture plate was cleaned with PBS and then, a 0.25%-trypsin/EDTA solution was added thereto, and incubation was performed for three minutes at 37° C. After the incubation, the aforementioned 10% FBS-containing DMEM was added to deactivate trypsin and then, five-minute centrifugal separation was performed at 150×g to precipitate the cells. After the supernatant generated by the centrifugal separation was removed, the 10% FBS-containing DMEM was added to the precipitate (cell pellet) to prepare a cell suspension of about 2×10^5 cells/mL. The cell suspension was added by 1 mL to a well of a commercially available six-hole (well) plate (manufactured by AGC TECHNO GLASS Co., Ltd.) so as to seed the cell (about 2× 10^5 cells/well). In addition, the 2 mM sample solution 1 was diluted with the 10% FBS-containing DMEM to prepare the sample solution 1 in which the concentration of the sample 1 was 20 μM. […]
Regarding the obtained cells (cell pellet), the cell membrane permeability of the sample 1 was analyzed using a flow cytometer. […]
Using the aforementioned flow cytometer, gating based on forward scatter (FSC) and side scatter (SSC) was performed to set a gate about a cell group to be analyzed, and the fluorescence intensity was measured about the cell group in this gate. […] The fluorescence intensity was measured using a fluorescence detector FL2 of the flow cytometer (optimum detection wavelength around 543 nm) capable of detecting the fluorescence wavelength of FAM. […]

In the case of “5 (6)-carboxyfluorescein [Example 2, reference compound]”, the “MFI (median fluorescence intensity)” value is reported as 10.6.
“Ac-RKLAVYWSTYKRSR-FAM (Ac-RKLAVYWSTYKRSR-{FAM″}) [Example 1]” was tested, and the “MFI (median fluorescence intensity)” value was 14.5 and the “flow cytometer histogram (FIG. 1), cell membrane permeability” value (10 µM, compared to FAM alone (Example 2)) was “shifted to the right side compared to the histogram according to Example 2”.
